Reference: paper PMC4569406, “Identification of Tetraazacyclic Compounds as Novel Potent Inhibitors Antagonizing RORγt Activity and Suppressing Th17 Cell Differentiation” (PLoS ONE, 2015)
“Also recorded” adds a separate entry of the source.

Assays:
[1] = system: Th17 cell differentiation; parameters: method as in PMID 21499262, PMID 22769242; conditions: cited from earlier work
RORγt-LBD [2] = target: T1, RORγt-LBD (Homo sapiens, UniProt P51449); assay: Inhibition of RORγt activity in RORγt+-293T stable reporter cells (luciferase); assay type: cell-based
T1 sequence (P51449 269-508 limits assumed): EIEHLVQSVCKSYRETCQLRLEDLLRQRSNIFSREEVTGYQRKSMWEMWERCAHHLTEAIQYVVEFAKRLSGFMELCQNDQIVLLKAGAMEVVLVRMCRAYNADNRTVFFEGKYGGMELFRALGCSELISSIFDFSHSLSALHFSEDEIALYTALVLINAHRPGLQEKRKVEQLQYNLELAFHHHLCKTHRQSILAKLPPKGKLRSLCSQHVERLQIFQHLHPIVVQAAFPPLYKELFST
Text: (§1) The pGL4.31[luc2P/GAL4UAS/Hygro] reporter plasmid and the pBIND vector were purchased from Promega (USA). The fragment of IRES-GFP was first inserted into NotI sites of pBIND. Human RORγtLBD was amplified from cDNA of human PBMC (cDNA is provided by Dr. Hui Zhang) and then cloned into the pBIND-IRES-GFP to generate the fusion sequence Gal4DBD-RORγtLBD-IRES-GFP. The primers that were used to construct the pBIND-Gal4DBD-RORγtLBD-IRES-GFP plasmid are shown as follows: RORγtLBD forward 5’- […]-3’, reverse 5’- […] -3’.
The 4 μg pGL4.31 reporter plasmids (promega, USA) were transfected into 293T cells (1 x 10^6) with Lipofectamin^TM 2000 (Invitrogen, USA) according to the manufacturer’s instructions. The transfected cells were then selected in medium containing 100 μg/mL hygromycin B (Roche, USA) for 3 weeks to obtain a stable clone which express pGL4.31 reporter gene. Then 4 μg pBIND-RORγtLBD-IRES-GFP plasmids were also transfected into the stable clone. The second transfected cells were sorted by Green Fluorescent Protein (GFP). Through this process, we obtained the 293T-RORγt stable reporter cell line. GFP^+-293T stable cell purity was determined >96% by flow cytometry analysis, which yielded a RORγt^+-293T (RORγt-LBD positive 293T cells) stable reporter cell line, and GFP^--293T stable cells were also sorted and used as a RORγt negative control cell line (Fig 1).
RORγt^+-293T stable cells (1x10^4) were seeded into 96-well plates (Corning, Costar)and incubated in DMEM complete medium overnight. Then the candidates were added with a final concentration of 5 μM. Negative control (DMSO) and positive control were carried on as HTS. 6 hours later, the cells were then lysed and assayed for luciferase activity (Promega, USA) following the manufacturer’s instructions.

[3] = system: Th17 cell differentiation; assay: Th17 differentiation of mouse CD4+CD25- T cells, qPCR of Rorγt, Il17a, Il17f; assay type: cell-based; conditions: 5 μM, normalized to Gapdh; for attenuation of Il17a mRNA expression vs vehicle-treated control: Th17 polarizing conditions (TGF-β, IL-6); for suppression of Il17f mRNA expression: Th17 polarizing conditions
Text: (§2) CD4^+CD25^- T cells were isolated from spleens of 12-week-old C57BL/6 as follows: single-cell suspensions were made by crushing the spleen through a cell strainer, and red blood cells (RBCs) were lysed with an RBC lysis buffer. CD4^+ T cells were then purified using MACS magnetic cell column with a CD4^+ T cell isolation kit (Miltenyi, Biotec) according to the manufacturer’s protocol. Isolated cells were fluorescently stained with PE-conjugated anti-mouse TCR-βAb, PE-Cy7-conjugated anti-mouse CD4 Ab and APC-conjugated anti-mouse CD25 Ab (BD Bioscience, USA) and analyzed by flow cytometry.
(§3) The isolated CD4^+CD25^- T cells (3x10^6) were cultured under Th17 conditions. […] Specifically, the isolated CD4^+CD25^- T cells (3x10^6) were stimulated (in 6-well plates) with 5 μg/ml plate-bound anti-CD3e antibody (eBioscience, USA) and 2 μg/ml soluble anti-CD28 Ab (eBioscience, USA) for 24 hours. Then the activated cells were collected, resuspended and seeded into 96-well round-bottom plates (2x10^4) for Th17 differentiation in the presence of 5 ng/ml recombinant human TGF-β, 30 ng/ml recombinant mouse IL-6 (R&D systems) and DMSO as control or hit compounds with a final concentration of 5 μM. The cells were cultured for 2 days. Later, fresh medium was added (100ul/well) containing recombinant human TGF-β, recombinant mouse IL-6 (R&D systems) and the hit compounds as previously introduced for culturing another 2 days.
After 5 days of culture, splenocyte total RNA was extracted with TRIzol (Invitrogen, USA). Then about 1000ng total RNA was added to a 20 μL reaction volume for reverse transcriptions by the GoScript Reverse Transcription System (Promega, USA) according to the manufacturer’s instructions, followed by real-time quantification using GoTaq qPCR Master Mix (Promega, USA). Gene expression of mouse Rorγt, Il17a and Il17f was normalized to the expression of Gapdh. The following primer sequences were used: Rorc forward 5’-TGTAATGTGG CCTACTCCTGCA-3’, reverse 5’-[…]-3’; Il17a forward 5’-[…]-3’, reverse 5’-[…]-3’; Il17f forward 5’-[…]-3’, reverse 5’- […]-3’; Gapdh forward 5’-[…]-3’, reverse 5’-[…]-3’.

IL-17A secretion = IL-17A secretion by ELISA under Th17 polarizing conditions; assay type: cell-based, mouse; conditions: 5 μM; for IL-17A concentration in supernatant / reduction of IL-17A secretion vs vehicle-treated control cells: Th17 polarizing conditions, ELISA
Text: as §2, §3
After 5 days of culture, the concentration of IL-17A in the supernatant was determined by an ELISA kit according to the manufacturer’s protocol (CUSABIO Systems, China).

[4] = Cell viability (MTT) assay; assay type: cell-based; conditions: human, wild type Jurkat cells, highest concentration 5 μM
Protocol: The cell viabilities of Jurkat cells (wild type) after treatment with chemicals were assessed by MTT technique. In brief, wild type Jurkat cells were seeded (2x10^4) and incubated with the compounds by 5-fold gradient concentrations, as described above. 48h treatment later, MTT (Dimethylthiazolyl-2-5-diphenyltetrazolium bromide) dye solution (Sigma, USA) was added into the 96-well plate and incubated at 37°C for 4 h, MTT is cleaved by live cells to a colored formazan product. After centrifugation (1500rpm, 5min) the supernatant was discarded. 100μl DMSO was added to dissolve the formazan product and gently shaken for 10min. Absorbance at 570 nm wavelength was recorded using a Thermo Scientific Multiskan FC (Thermo Scientific, USA). Each treatment was repeated in quadruplicate. Cell viabilities were defined relative to control cells (DMSO treated). The half-maximal cytotoxic concentration (CC50) for each compound was calculated from these dose-response curves with the aid of Graphpad Prism software (GraphPad Software, CA).

RORγt-LBD [5] = target: T1, RORγt-LBD; assay: Gal4-RORγtLBD luciferase reporter assay in RORγt+-Jurkat stable cells (HTS / EC50 assay); assay type: cell-based; parameters: Human RORγtLBD was amplified from cDNA of human PBMC; expressed in transfected cells; host or cells: Jurkat cells stably carrying pGL4.31[luc2P/GAL4UAS/Hygro], GFP-sorted; conditions: for EC50: 5 μM to 8 nM 5-fold gradient, read-out: EC50 (anti-RORγt activity, relative luciferase activity)
Text: as §1
(§4) Similar to the above procedure, to obtain the needed Jurkat-RORγt reporter cell lines, a total of 1x10^7 Jurkat cells were transfected with 20 μg pGL4.31 reporter plasmids by electroporation (Lonza, Swiss) according to the manufacturer’s instructions. The transfected Jurkat cells were also selected in RPMI 1640 medium containing 200 μg/mL hygromycin B. And then the 20 μg PBIND-RORγtLBD-IRES-GFP plasmids were also transfected into the stable Jurkat clone and were sorted by GFP. GFP^+-Jurkat stable cell purity was determined >96% by flow cytometry analysis and GFP^--Jurkat stable cells were also sorted (Fig 1).
RORγt^+-Jurkat stable cells (2x10^4) were seeded into 96-well round-bottom plates (Corning, Costar)and incubated in RPMI1640 complete medium overnight. At initial round screening, drug-like set compounds (Enamine, Monmouth Jct, NJ) were added using a Tecan Freedom EVO150 (Tecan, Männedorf, Schweiz) with a final concentration of 50 μM, which used by other research. 50 μM concentration is pretty high in drug screening and always raises many false positive. To reduce these false positive, we reduced the compounds concentration to 5 μM in the second round validation screening. Column 12 of each plate received only DMSO instead of any compounds as a negative control. In addition, column 1 of each plate was treated with 100 nM PMA (Sigma-Aldrich, USA) as a positive control. 6 hours later, the cells were then lysed and assayed for luciferase activity (Promega, USA) following the manufacturer’s instructions.
Jurkat-RORγt^+ stable cells were seeded into 96-well round-bottom plates (2x10^4) overnight and incubated with the compounds by 5-fold gradient, with final concentrations from 5μM to 8nM. 6h later, the cells were then lysed and assayed for luciferase activity (Promega, USA) following the manufacturer’s instructions. The values of half-maximal effective concentration (EC50) were determined by plotting the logarithm of compound concentration versus relative luciferase activity.
The EC50 and CC50 of all three compounds were determined to further identify the effects of these three tetraazacyclic compounds. […] The CC50 values of each compound in Jurkat cells were also determined as previously described in the methods section.

RORγt--Jurkat cells = assay: Luciferase reporter activity in RORγt--Jurkat (RORγt-LBD negative) control cells; assay type: cell-based; conditions: different concentrations of PMA (100 nM, 10 nM, 1 nM), 4 and 6 hr
Protocol: as §4
RORγt^+-Jurkat (RORγt-LBD positive Jurkat cells) and RORγt^--Jurkat (RORγt-LBD negative Jurkat cells) stable cells (1x10^5) were seeded onto separate 12-well plates and cultured overnight. Cells were then stimulated with different concentrations of PMA (100 nM, 10 nM, 1 nM) or DMSO (negative control) for 4, 6, and 8 hr. […] Luciferase activity was highest in cells cultured with 100nM PMA, it was at approximately 40-fold over the DMSO control (Fig 2A and 2B). When RORγt^+-Jurkat cells were cultured for 6 hr, the luciferase activity was nearly identical across the concentrations and increased from control by about 40-fold at various concentrations (Fig 2D and 2E). […]

Row | SMILES | inhibition of reporter activity in RORγt+-293T cells (RORγt-LBD [2]; 5 μM, 6 h, vs vehicle control) | EC50 (RORγt-LBD [5]; RORγt+-Jurkat cells, 6 hr) [nM] | inhibition at 5 µM (RORγt-LBD [2]; 5 μM, 6 h, vs vehicle control) [%] | inhibition at 5 µM (RORγt-LBD [5]; 5 μM, 6 hr, vs vehicle control) [%] | activity in Th17 cell differentiation study [1] | attenuation of Il17a mRNA expression vs vehicle-treated control [3] | suppression of Il17f mRNA expression [3] | IL-17A concentration in supernatant (IL-17A secretion) [pg/mL] | reduction of IL-17A secretion vs vehicle-treated control cells (IL-17A secretion) [%] | CC50 at 48 h [4] [nM] | greatest increase in luciferase activity vs DMSO (RORγt-LBD [2]; RORγt+-293T cells, 100 nM PMA, 4 hr and 6 hr) | luciferase activity in RORγt--Jurkat cells (RORγt--Jurkat cells) | luciferase activity, fold over DMSO control (RORγt-LBD [5]; RORγt+-Jurkat cells, 100 nM PMA, 4 hr) | luciferase activity, fold increase from control (RORγt-LBD [5]; RORγt+-Jurkat cells, 100 nM, 10 nM, 1 nM PMA, 6 hr) | suppression / reduction in IL-17A production (Discussion summary) (IL-17A secretion; mouse Th17 differentiation, for 11 and 14 both mRNA expression and protein secretion)
1 | CC(=O)Nc1nc(C)c(S(=O)(=O)Nc2ccc(C(O)(C(F)(F)F)C(F)(F)F)cc2)s1 [SR1001] | – | – | – | – | relatively weak activity | – | – | – | – | – | – | – | – | – | –
2 | Cc1ccccc1-n1nnnc1Sc1ccnc2cc(Cl)ccc12 [compound 11, 7-chloro-4-[1-(2-methylphenyl)tetrazol-5-yl]sulfanylquinoline] | significantly less inhibition | 250 | – | – | – | 65%-80% | 90% | 136 | 63 | > 5000 | – | – | – | – | –
3 | CCCCCCCCCCCCCC(=O)O[C@@H]1[C@@H](C)[C@@]2(O)[C@@H](C=C(CO)C[C@]3(O)C(=O)C(C)=C[C@@H]23)[C@@H]2C(C)(C)[C@]12OC(C)=O [PMA, phorbol-12-myristate-13-acetate, reference compound] | – | – | – | – | – | – | – | – | – | – | 4–6 folds | no significant increase | approximately 40 fold | approximately 40 fold | –

More lines, main results first:

Row | inhibition of reporter activity in RORγt+-293T cells (RORγt-LBD [2]; 5 μM, 6 h, vs vehicle control) | EC50 (RORγt-LBD [5]; RORγt+-Jurkat cells, 6 hr) [nM] | inhibition at 5 µM (RORγt-LBD [2]; 5 μM, 6 h, vs vehicle control) [%] | inhibition at 5 µM (RORγt-LBD [5]; 5 μM, 6 hr, vs vehicle control) [%] | SMILES | activity in Th17 cell differentiation study [1] | attenuation of Il17a mRNA expression vs vehicle-treated control [3] | suppression of Il17f mRNA expression [3] | IL-17A concentration in supernatant (IL-17A secretion) [pg/mL] | reduction of IL-17A secretion vs vehicle-treated control cells (IL-17A secretion) [%] | CC50 at 48 h [4] [nM] | greatest increase in luciferase activity vs DMSO (RORγt-LBD [2]; RORγt+-293T cells, 100 nM PMA, 4 hr and 6 hr) | luciferase activity in RORγt--Jurkat cells (RORγt--Jurkat cells) | luciferase activity, fold over DMSO control (RORγt-LBD [5]; RORγt+-Jurkat cells, 100 nM PMA, 4 hr) | luciferase activity, fold increase from control (RORγt-LBD [5]; RORγt+-Jurkat cells, 100 nM, 10 nM, 1 nM PMA, 6 hr) | suppression / reduction in IL-17A production (Discussion summary) (IL-17A secretion; mouse Th17 differentiation, for 11 and 14 both mRNA expression and protein secretion)
4 | significantly less inhibition | 670 | – | – | Cc1cccc(C)c1-n1nnnc1Sc1ncnc2ccsc12 [compound 14, 4-[1-(2,6-dimethylphenyl)tetrazol-5-yl]sulfanylthieno[3,2-d]pyrimidine] | – | 65%-80% | did not significantly inhibited; also recorded: no significant inhibition | 88 | 74 | > 5000 | – | – | – | – | –
5 | – | 2600 | 95 | 75 | CCN(CC)Cc1nc(Sc2nnnn2-c2ccccc2)c2c(C)c(C)sc2n1 [compound 7, N-[[5,6-dimethyl-4-(1-phenyltetrazol-5-yl)sulfanylthieno[3,2-e]pyrimidin-2-yl]methyl]-N-ethylethanamine] | – | 65%-80% | 87% | 196 | 47 | 1500 | – | – | – | – | ~ 50%
